Reference: US20250345328A1, “METHODS OF TREATING A RAS RELATED DISEASE OR DISORDER” (Revolution Medicines, Inc., priority 2023, published 2025)

How the values were obtained:
[1] = test system: human KRAS^G12C NSCLC NCI-H2122 xenograft tumors; assay: NCI-H2122 xenograft, Compound A plus RMC-6291 combination; assay type: in vivo; conditions: immune-deficient mice; repeated daily oral administration
Method: The antitumor activity of Compound A in combination with RMC-6291 was evaluated using immune-deficient mice bearing human KRAS^G12C NSCLC NCI-H2122 xenograft tumors.

KRAS^G12X PDAC = assay: Phase 1/1b study: tumor response per RECIST v1.1 in PDAC; assay type: in vivo, human
Method: FIG. 5 is a waterfall plot showing the best response in KRAS^G12X PDAC.
(§1) Subjects are assessed for response using Response Evaluation Criteria in Solid Tumors (version 1.1) (RECIST [v1.1]). All subjects with previous or current, known or suspected brain metastases must have a magnetic resonance imaging (MRI) of the brain (unless contraindicated) performed within 28 days prior to the first dose of Compound A (C1D1). Disease response for clinical management of subjects is assessed per RECIST (v1.1).

[2] = test system: human xenograft models with KRAS^G12X mutations; assay: Human xenograft tumor models in mice; assay type: in vivo; conditions: for Tumor regressions in xenograft models: mice
Description: (§2) As described herein, Compound A is a potent, orally (PO) bioavailable RAS(ON) multi-selective inhibitor, selective for the active guanosine-5′-triphosphate (GTP)-bound state (RAS(ON)) of both mutant and wild-type variants of the canonical RAS isoforms (KRAS, NRAS, and HRAS) over other members of the RAS superfamily and other cellular targets. […] Binding of Compound A to CypA results in an inhibitory complex that binds RAS(ON), forming a high-affinity tri-complex that suppresses RAS signaling by disrupting interactions with effectors.
(§3) Dose levels greater than or equal to 80 mg achieved exposures that induced tumor regressions in human xenograft models with KRAS^G12X mutations in mice (FIG. 3).

KRAS^G12X VAF in ctDNA = assay: KRAS variant allele frequency in ctDNA (Guardant Health ctDNA test); assay type: in vivo, human
Description: Lines inside box plots indicate median values; whiskers indicate largest or smallest value (at most±1.5× the interquartile range). Circles indicate data points >1.5 times the interquartile range; KRAS^G12X VAF at Cycle 1 Day 1 (pre-treatment) to Cycle 2 Day 1 or Cycle 3 Day 1 (on-treatment) determined by Guardant Health ctDNA test. ctDNA, circulating tumor DNA; VAF, variant allele frequency.
Whole-blood samples are collected from all subjects to measure Compound A concentrations, circulating tumor deoxyribonucleic acid (ctDNA) and other biomarkers. Samples for pharmacodynamic assays collected in Cycle 1 and beyond. Paired pretreatment and on treatment fresh tumor samples can optionally be collected from any subject if consent is obtained and at the discretion of the treating physician. Optional collection of pre-study treatment fresh biopsy should be performed prior to C1D1 dosing. An optional on-study treatment biopsy can be obtained with subject consent and at the discretion of the treating physician. The primary purpose of the optional on-study treatment biopsies is to assess pharmacodynamic markers and previously acquired pre-study treatment markers of resistance. […]
Patients with NSCLC and PDAC evaluated for molecular responses were dosed at 20-300 mg QD. […]

[3] = test system: multiple human cancer cell lines; assay: Growth suppression and apoptosis in cancer cell lines in vitro; assay type: cell-based
Description: as §2

KRAS^G12V ovarian cancer = assay: Phase 1/1b study: tumor response in ovarian cancer case; assay type: in vivo, human; conditions: one patient; 10 mg QD, escalated to 40 mg QD at C7 and 80 mg QD at C10; at cycle 13
Method: as §1
person diagnosed with stage III ovarian cancer in 2004 and later with metastatic disease to the liver and peritoneum. The patient had received 2 prior therapies; Surgery; and carboplatin/paclitaxel. […] The patient was dose escalated to 40 mg QD at C7 and then to 80 mg QD at C10.

[4] = Phase 1/1b study of Compound A: safety, treatment-related adverse events; assay type: in vivo, human
Method: This Example describes the study design of a Phase 1/1b study of Compound A in patients with advanced solid tumors harboring specific mutations in RAS with the first patient dosed in June 2022. There are 2 parts planned in this study: Part 1: Dose Escalation and Part 2: Dose Expansion. In the Dose Escalation Phase, safety/tolerability and pharmacokinetics (PK) are assessed, and one or more candidate recommended phase 2 dose and schedule (RP2DS) for further testing in the second part of the study is determined. Enrollment in the Dose Expansion Phase begins after determination of a candidate RP2DS. Part 2 of the study further evaluates the safety/tolerability, PK, and preliminary antitumor effects within specific histotypes. Dose Expansion/Dose Optimization cohorts include RAS-mutant advanced solid tumors with specific histotypes/genotypes (including, but not limited to, NSCLC, PDAC, CRC, melanoma, gynecological cancers, other solid tumors.
Safety assessments and procedures were performed. Real-time safety monitoring was performed to ensure that the protocol-specified dose modification guidelines are followed. In addition, C1 safety and available PK and pharmacodynamic data was reviewed and evaluated at each Compound A dose level/schedule to determine whether enrollment into the next higher dose-level cohort may proceed. A modified schedule can be evaluated in which Compound A may be administered more or less frequently than once daily (QD). The totality of the data from dose escalation cohorts was reviewed and one or more candidate RP2DS for expansion in Part 2 recommended.
(§4) Compound A was administered PO QD at the following dose levels until disease progression or unacceptable toxicity: 10, 20, 40, 80, 120, 160, 220, 300, 400, and 500 mg. Progression to the next Cohort and dose level may stop if DLT is observed at a lower dose level. Other dose levels not specified but within the range listed above may also be permitted based on emergent safety and PK data.
As of Sep. 11, 2023, 131 patients received Compound A at dose levels from 10 to 400 mg QD. The majority of patients had pancreatic cancer, non-small cell lung cancer, or colorectal cancer. The most common (≥10% of patients) treatment-related adverse events (TRAEs) were rash and gastrointestinal (GI)-related toxicities that were all Grade 1 or 2 in severity. Most rashes were acneiform or maculopapular, consistent with known on-target rash presentation from other RAS pathway inhibitors. […] The most common GI-related toxicities were nausea, diarrhea, and vomiting that were manageable with standard supportive care. The median duration of treatment at the time of the data extraction was 2.27 months.

[5] = Phase 1/1b study: steady-state blood PK; assay type: in vivo, human; conditions: PO QD
Description: FIG. 3 graphically depicts the mean steady-state blood PK profiles and individual steady-state blood AUC.
Whole-blood samples are collected from all subjects to measure Compound A concentrations, circulating tumor deoxyribonucleic acid (ctDNA) and other biomarkers. Samples for pharmacodynamic assays collected in Cycle 1 and beyond. Paired pretreatment and on treatment fresh tumor samples can optionally be collected from any subject if consent is obtained and at the discretion of the treating physician. Optional collection of pre-study treatment fresh biopsy should be performed prior to C1D1 dosing. An optional on-study treatment biopsy can be obtained with subject consent and at the discretion of the treating physician. The primary purpose of the optional on-study treatment biopsies is to assess pharmacodynamic markers and previously acquired pre-study treatment markers of resistance. Biopsy assessment with study intervention treatment over time may also help with better understanding of the shift in mutational profile with study treatment, as well as cellular clonality changes over time. Where tumor tissue allows, predictive biomarkers of response may be explored.
as §4, §3

KRAS^G12X NSCLC = assay: Phase 1/1b study: tumor response per RECIST v1.1 in NSCLC; assay type: in vivo, human
Method: FIG. 4 is a waterfall plot showing the best response in KRAS^G12X NSCLC.
as §1

[6] = KRAS G12X PDAC, 80 mg QD to 400 mg QD, RECIST v1.1, FIG. 5
[7] = one patient, 80 mg QD, at cycle 5
[8] = Total (N = 131), 10 to 400 mg QD, as of Sep. 11, 2023
[9] = Total (N = 131), 10 to 400 mg QD, post-data extraction associated with biliary obstruction, reported as unrelated to Compound A
[10] = KRAS G12X NSCLC, 80 mg QD to 400 mg QD, RECIST v1.1, FIG. 4

## CCn1c(-c2cccnc2[C@H](C)OC)c2c3cc(ccc31)N1CCO[C@@H](C[C@H](NC(=O)[C@H](C(C)C)N(C)C(=O)C3(F)CCN(C(=O)C#CC(C)(C)N(C)C)CC3)C(=O)N3CCC[C@H](N3)C(=O)OCC(C)(C)C2)C1 [RMC-6291]
[1]
  Mean tumor regression: mean tumor regressions were not achieved

## CCn1c(-c2cc(N3CCN(C)CC3)cnc2[C@H](C)OC)c2c3cc(ccc31)-c1csc(n1)C[C@H](NC(=O)[C@H]1C[C@@H]1C)C(=O)N1CCC[C@H](N1)C(=O)OCC(C)(C)C2 [Compound A]
KRAS^G12X PDAC; [6]
  Disease control rate: 87%
  Overall response rate: 20%
KRAS^G12X PDAC; [7]
  Response, case report KRAS^G12D PDAC: confirmed partial response
KRAS^G12X PDAC; one patient, 160 mg QD, at week 6
  Response, case report KRAS^G12R PDAC: confirmed partial response
[2]; 10 mg/kg QD
  Tumor regressions in xenograft models: induces tumor regressions in sensitive models
[2]; 25 mg/kg QD
  Tumor regressions in xenograft models: induces tumor regressions in the majority of models
[2]; human xenograft tumor models, particularly KRAS^G12X
  Anti-tumor activity in vivo: significant anti-tumor activity
KRAS^G12X VAF in ctDNA; one patient with KRAS^G12V ovarian cancer, 10 mg QD, at C2D1
  Reduction in KRAS^G12V VAF: 60%
KRAS^G12X VAF in ctDNA; patients with NSCLC and PDAC dosed at 20-300 mg QD, FIG. 6
  Molecular response in ctDNA: reduction in ctDNA of the KRAS-mutated allele
[3]
  Effect on cancer cell lines in vitro: growth suppression and apoptosis
KRAS^G12V ovarian cancer
  Response, case report KRAS^G12V ovarian cancer: confirmed partial response
[4]; 131 patients, 10 to 400 mg QD
  Dose dependence of rash: Rash frequency, but not severity, was dose-dependent
  Fatal TRAEs: No fatal TRAEs
  Severity of the most common (≥10% of patients) TRAEs (rash and GI-related toxicities): Grade 1 or 2
[4]; [8]
  ALT elevation TRAE, Any Grade: 8 (6) n(%)
  ALT elevation TRAE, maximum severity Grade 1: 6 (5) n(%)
  ALT elevation TRAE, maximum severity Grade 2: 1 (1) n(%)
  ALT elevation TRAE, maximum severity Grade 4: 0 n(%)
  AST elevation TRAE, Any Grade: 7 (5) n(%)
  AST elevation TRAE, maximum severity Grade 1: 6 (5) n(%)
  AST elevation TRAE, maximum severity Grade 2: 0 n(%)
  AST elevation TRAE, maximum severity Grade 4: 0 n(%)
  Diarrhea TRAE, Any Grade: 42 (32) n (%)
  Diarrhea TRAE, maximum severity Grade 1: 32 (24) n (%)
  Diarrhea TRAE, maximum severity Grade 2: 9 (7) n (%)
  Diarrhea TRAE, maximum severity Grade 3: 1 (1) n (%)
  Diarrhea TRAE, maximum severity Grade 4: 0 n (%)
  Electrocardiogram QT prolonged TRAE, Any Grade: 1 (1) n(%)
  Electrocardiogram QT prolonged TRAE, maximum severity Grade 1: 1 (1) n(%)
  Electrocardiogram QT prolonged TRAE, maximum severity Grade 2: 0 n(%)
  Electrocardiogram QT prolonged TRAE, maximum severity Grade 3: 0 n(%)
  Electrocardiogram QT prolonged TRAE, maximum severity Grade 4: 0 n(%)
  Fatigue TRAE, Any Grade: 16 (12) n (%)
  Fatigue TRAE, maximum severity Grade 1: 12 (9) n (%)
  Fatigue TRAE, maximum severity Grade 2: 4 (3) n (%)
  Fatigue TRAE, maximum severity Grade 3: 0 n (%)
  Fatigue TRAE, maximum severity Grade 4: 0 n (%)
  Nausea TRAE, Any Grade: 55 (42 n (%)
  Nausea TRAE, maximum severity Grade 1: 41 (31) n (%)
  Nausea TRAE, maximum severity Grade 2: 14 (11) n (%)
  Nausea TRAE, maximum severity Grade 3: 0 n (%)
  Nausea TRAE, maximum severity Grade 4: 0 n (%)
  Rash* TRAE, Any Grade: 92 (70) n (%)
  Rash* TRAE, maximum severity Grade 1: 57 (44) n (%)
  Rash* TRAE, maximum severity Grade 2: 29 (22) n (%)
  Rash* TRAE, maximum severity Grade 3: 6 (5) n (%)
  Rash* TRAE, maximum severity Grade 4: 0 n (%)
  Stomatitis TRAE, Any Grade: 21 (16) n (%)
  Stomatitis TRAE, maximum severity Grade 1: 10 (8) n (%)
  Stomatitis TRAE, maximum severity Grade 2: 9 (7) n (%)
  Stomatitis TRAE, maximum severity Grade 3: 2 (2) n (%)
  Stomatitis TRAE, maximum severity Grade 4: 0 n (%)
  TRAEs leading to dose reduction, Any Grade: 11 (8) n(%)
  TRAEs leading to dose reduction, maximum severity Grade 1: 0 n(%)
  TRAEs leading to dose reduction, maximum severity Grade 2: 9 (7) n(%)
  TRAEs leading to dose reduction, maximum severity Grade 3: 2 n(%)
  TRAEs leading to dose reduction, maximum severity Grade 4: 0 n(%)
  TRAEs leading to treatment discontinuation, Any Grade: 1 (1) n(%)
  TRAEs leading to treatment discontinuation, maximum severity Grade 1: 0 n(%)
  TRAEs leading to treatment discontinuation, maximum severity Grade 2: 0 n(%)
  TRAEs leading to treatment discontinuation, maximum severity Grade 3: 0 n(%)
  TRAEs leading to treatment discontinuation, maximum severity Grade 4: 1 (1) n(%)
  Vomiting TRAE, Any Grade: 36 (28) n (%)
  Vomiting TRAE, maximum severity Grade 1: 27 (21) n (%)
  Vomiting TRAE, maximum severity Grade 2: 9 (7) n (%)
  Vomiting TRAE, maximum severity Grade 3: 0 n (%)
  Vomiting TRAE, maximum severity Grade 4: 0 n (%)
[4]; [9]
  ALT elevation TRAE, maximum severity Grade 3: 1 (1)+ n(%)
  AST elevation TRAE, maximum severity Grade 3: 1 (1)+ n(%)
[4]; one PDAC (120 mg) due to PD, one NSCLC (200 mg) unknown cause reported as unrelated to Compound A
  Discontinuation of study treatment due to death: Two patients discontinued study treatment due to death
[4]; one patient with PDAC treated at 80 mg, at the site of an invasive tumor
  Grade 4 TRAE (leading to treatment discontinuation): large intestine perforation
[5]; blood
  Exposure in patients versus dose: dose-dependent increases in exposure
[5]; patients
  Accumulation in the blood following repeated daily dosing: minimal accumulation
[5]; patients, FIG. 3
  Dose levels that achieved exposures that induced tumor regressions in human xenograft models with KRAS^G12X mutations in mice: greater than or equal to 80 mg
KRAS^G12X NSCLC; [10]
  Disease control rate: 85%
  Overall response rate: 38%
KRAS^G12X NSCLC; [7]
  Response, case report KRAS^G12D NSCLC: confirmed partial response
KRAS^G12X NSCLC; one patient, 300 mg QD reduced to 200 mg QD due to fatigue, at week 6
  Response, case report KRAS^G12V NSCLC: confirmed complete response
KRAS^G12X NSCLC; one patient, 300 mg QD, within one week of start of treatment
  Clinical symptoms, case report KRAS^G12V NSCLC: clinical improvement in cough and dyspnea
[1]
  Mean tumor regression: mean tumor regressions were not achieved
